Data on one molecule can be found in paper PMC12143348, “Rapid and reversible fluorescent probe enables repeated snapshot imaging of AMPA receptors during synaptic plasticity” (Science Advances, 2025).

The target of one experiment is T1, GluA2flip(Q) (Mus musculus, UniProt P23819, DEL765-802).
T1 construct: expressed in transfected cells; host or cells: HEK293T
Put plainly: Concentration-dependent binding of fluorophore-ligand conjugates, confocal live imaging of HEK293T cells expressing GluA2.

A further experiment deals with T2, GluA2 (Mus musculus, UniProt P23819, DEL765-802).
T2 construct: expressed in transfected cells; host or cells: HEK293T
As to the kind of experiment: Kinetics and reversibility of PFQX1(AF488) binding in HEK293T cells expressing GluA2. The settings on record: 100 nM probe. As to the method: HEK293T cells were transfected with Halo-tag-GluA2^flip(Q)-3′UTR. The cells were incubated with 500 nM Halo-Tag ligand-Alexa647 [HTL(AF647)] for 15 min at room temperature. AF647 was used as a transfection marker. The cells were washed three times with HBS, and a cloning ring (16 mm φ) was placed on the dish to accelerate the diffusion of the probe solution. After the dish was set on the stage, 100 nM PFQX1(AF488) was added to inside the cloning ring and imaged at specified time points by confocal microscopy.
For evaluating reversibility, 100 nM PFQX1(AF488) in HBS was added to the dish. The cells were observed by confocal microscopy as the first image. Then, the cells were washed three times with HBS and scanned as the wash image. After removal of the buffer, 100 nM PFQX1(AF488) was re-treated, and the cells were scanned as the second image. To quantify the fluorescence intensity of the membrane, the average signal intensity of regions of interest (ROIs) set on the membrane was calculated after subtracting background fluorescence by ZEN blue software.

The next experiment deals with T3, GluA3 (Y454A/R461G) (Mus musculus, UniProt Q9Z2W9, R461G/Y454A).
T3 construct: expressed in transfected cells; host or cells: HEK293T
Put plainly: Concentration-dependent binding of PFQX1(AF488), confocal live imaging of HEK293T cells expressing GluA3. The settings on record: n = 3, read-out: Kd / Affinity of PFQX1(AF488) to GluA3. The protocol: (§1) HEK293T cells were cotransfected with plasmids for AMPAR [5′UTR-GluA1^flip(R)-3′UTR, GluA2^flip(Q)-3′UTR, GluA3^flip(Q) (Y454A/R461G), and GluA4^flip(Q)], kainate receptor [GluK2(Q)], auxiliary subunits, or the control vector and transfection marker (EFGP-F or mCherry-F). Fluorophore-ligand conjugates were diluted in Hepes-buffered saline (HBS) buffer [20 mM Hepes (pH 7.4), 107 mM NaCl, 6 mM KCl, 1.2 mM MgSO4, 2 mM CaCl2, and 11.5 mM glucose] and added to the cells. Confocal live imaging was performed with LSM900 (Carl Zeiss) equipped with a 63×, numerical aperture (NA) = 1.4 oil-immersion objective. Fluorescence images were acquired by excitation at 405, 488, 561, or 640 nm derived from diode lasers.
For evaluating the concentration dependency of fluorophore-ligand conjugates, 0.1 nM probe in HBS was added to the dish. Then, probes in HBS were added stepwise to the dish to a final concentration of 0.3, 1, 3, 10, 30, 100, 300, 1000, and 3000 nM. Cell surface fluorescence intensity was quantified from the line scans of transfection marker positive cells and calculated with subtraction of background by ZEN blue software (Carl Zeiss). The membrane intensity was fitted with KaleidaGraph (Synergy software) to calculate the equilibrium constant value using the following equation: a + (b − a)/(1 + (x/c)^d). The equilibrium constant is regarded as the Kd in this study.

In the next experiment the target is T4, GluA2flip(R) (Mus musculus, UniProt P23819, DEL765-802/Q607R).
T4 construct: expressed in transfected cells; host or cells: HEK293T
As to the kind of experiment: Concentration-dependent binding of PFQX1(AF488) to GluA2flip(R) expressed alone in HEK293T cells. The conditions noted are these: n = 3–4, read-out: Kd / Affinity of PFQX1(AF488) to GluA2flip(R) expressed alone (–). The protocol:
as §1
For evaluating the concentration dependency of fluorophore-ligand conjugates, 0.1 nM probe in HBS was added to the dish. Then, probes in HBS were added stepwise to the dish to a final concentration of 0.3, 1, 3, 10, 30, 100, 300, 1000, and 3000 nM. Cell surface fluorescence intensity was quantified from the line scans of transfection marker positive cells and calculated with subtraction of background by ZEN blue software (Carl Zeiss). […]
(A) Concentration-dependent binding of PFQX1(AF488) to GluA2 flip(R) expressed with GSG1L or TARP γ7. […] (B) The surface intensity of PFQX1(AF488) was quantified. […]

T2 sequence (P23819 with tags, fused parts or gaps isoform P23819-4 DEL765-802): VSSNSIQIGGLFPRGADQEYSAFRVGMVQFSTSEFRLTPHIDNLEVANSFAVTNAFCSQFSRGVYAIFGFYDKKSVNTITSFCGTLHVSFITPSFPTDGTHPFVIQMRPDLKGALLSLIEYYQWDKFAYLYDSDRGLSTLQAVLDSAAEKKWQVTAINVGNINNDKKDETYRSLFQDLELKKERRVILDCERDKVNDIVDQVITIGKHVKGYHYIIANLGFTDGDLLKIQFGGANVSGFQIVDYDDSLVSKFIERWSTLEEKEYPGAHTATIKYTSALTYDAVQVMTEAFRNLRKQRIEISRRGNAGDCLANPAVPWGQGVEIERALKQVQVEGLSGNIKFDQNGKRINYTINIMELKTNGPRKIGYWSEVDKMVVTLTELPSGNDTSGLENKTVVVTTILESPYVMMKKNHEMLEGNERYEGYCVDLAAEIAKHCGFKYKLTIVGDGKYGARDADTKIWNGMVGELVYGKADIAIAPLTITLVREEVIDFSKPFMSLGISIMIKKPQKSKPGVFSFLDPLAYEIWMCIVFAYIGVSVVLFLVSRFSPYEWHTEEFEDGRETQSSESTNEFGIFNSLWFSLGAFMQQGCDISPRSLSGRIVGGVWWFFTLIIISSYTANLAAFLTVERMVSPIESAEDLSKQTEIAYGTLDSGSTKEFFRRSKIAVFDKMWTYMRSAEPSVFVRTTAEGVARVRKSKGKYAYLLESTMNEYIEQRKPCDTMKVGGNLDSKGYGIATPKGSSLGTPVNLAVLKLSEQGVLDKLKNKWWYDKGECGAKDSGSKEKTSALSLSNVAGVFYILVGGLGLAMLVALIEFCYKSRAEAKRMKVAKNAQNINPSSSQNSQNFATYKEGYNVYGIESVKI
T1 sequence (P23819 with tags, fused parts or gaps isoform P23819-4 DEL765-802): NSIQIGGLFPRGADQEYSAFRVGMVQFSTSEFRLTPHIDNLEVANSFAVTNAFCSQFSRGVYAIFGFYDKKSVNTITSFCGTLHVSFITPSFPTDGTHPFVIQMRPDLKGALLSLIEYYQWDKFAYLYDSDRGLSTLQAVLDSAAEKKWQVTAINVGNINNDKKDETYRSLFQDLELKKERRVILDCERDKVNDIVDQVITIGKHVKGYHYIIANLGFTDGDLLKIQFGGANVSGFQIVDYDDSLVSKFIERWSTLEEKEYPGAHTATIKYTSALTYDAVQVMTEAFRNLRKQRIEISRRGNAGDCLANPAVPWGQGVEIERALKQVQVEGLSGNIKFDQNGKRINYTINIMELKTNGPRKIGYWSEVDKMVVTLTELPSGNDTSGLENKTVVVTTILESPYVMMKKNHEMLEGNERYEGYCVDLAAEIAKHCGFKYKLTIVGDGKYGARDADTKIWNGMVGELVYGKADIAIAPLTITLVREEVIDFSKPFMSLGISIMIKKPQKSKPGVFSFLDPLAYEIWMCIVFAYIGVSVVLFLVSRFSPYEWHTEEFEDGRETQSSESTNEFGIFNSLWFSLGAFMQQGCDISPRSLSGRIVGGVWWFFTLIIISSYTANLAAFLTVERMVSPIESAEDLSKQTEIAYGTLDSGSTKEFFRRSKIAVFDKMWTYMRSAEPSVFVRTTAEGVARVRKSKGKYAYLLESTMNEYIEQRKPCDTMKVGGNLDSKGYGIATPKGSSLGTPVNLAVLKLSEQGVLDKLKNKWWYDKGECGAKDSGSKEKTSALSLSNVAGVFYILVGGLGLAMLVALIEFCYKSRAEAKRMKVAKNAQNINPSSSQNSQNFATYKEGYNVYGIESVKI
T3 sequence (Q9Z2W9 23-888 Y454A/R461G): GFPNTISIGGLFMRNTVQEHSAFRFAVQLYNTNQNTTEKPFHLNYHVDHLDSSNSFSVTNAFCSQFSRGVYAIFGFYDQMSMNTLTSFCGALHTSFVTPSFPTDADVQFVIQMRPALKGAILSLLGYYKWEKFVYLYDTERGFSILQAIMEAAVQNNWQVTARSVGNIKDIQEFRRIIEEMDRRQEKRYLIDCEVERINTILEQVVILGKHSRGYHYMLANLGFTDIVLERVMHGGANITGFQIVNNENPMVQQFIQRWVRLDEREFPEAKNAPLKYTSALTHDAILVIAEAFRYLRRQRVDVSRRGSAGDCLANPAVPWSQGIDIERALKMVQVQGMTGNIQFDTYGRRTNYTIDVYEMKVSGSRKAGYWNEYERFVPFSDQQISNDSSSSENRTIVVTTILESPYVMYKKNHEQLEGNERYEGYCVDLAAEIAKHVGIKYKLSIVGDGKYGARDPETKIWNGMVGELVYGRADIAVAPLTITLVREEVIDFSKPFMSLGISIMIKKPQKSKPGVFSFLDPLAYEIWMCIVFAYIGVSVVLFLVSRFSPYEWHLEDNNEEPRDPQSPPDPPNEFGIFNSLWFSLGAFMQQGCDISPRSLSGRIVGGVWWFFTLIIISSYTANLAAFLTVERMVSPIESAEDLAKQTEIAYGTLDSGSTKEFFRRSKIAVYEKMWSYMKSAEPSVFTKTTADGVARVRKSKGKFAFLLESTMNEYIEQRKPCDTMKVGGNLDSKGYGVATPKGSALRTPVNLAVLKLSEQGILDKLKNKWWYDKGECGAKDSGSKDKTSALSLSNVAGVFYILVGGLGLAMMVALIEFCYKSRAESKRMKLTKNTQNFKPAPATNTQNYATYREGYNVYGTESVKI
T4 sequence (P23819 with tags, fused parts or gaps isoform P23819-4 Q607R/DEL765-802): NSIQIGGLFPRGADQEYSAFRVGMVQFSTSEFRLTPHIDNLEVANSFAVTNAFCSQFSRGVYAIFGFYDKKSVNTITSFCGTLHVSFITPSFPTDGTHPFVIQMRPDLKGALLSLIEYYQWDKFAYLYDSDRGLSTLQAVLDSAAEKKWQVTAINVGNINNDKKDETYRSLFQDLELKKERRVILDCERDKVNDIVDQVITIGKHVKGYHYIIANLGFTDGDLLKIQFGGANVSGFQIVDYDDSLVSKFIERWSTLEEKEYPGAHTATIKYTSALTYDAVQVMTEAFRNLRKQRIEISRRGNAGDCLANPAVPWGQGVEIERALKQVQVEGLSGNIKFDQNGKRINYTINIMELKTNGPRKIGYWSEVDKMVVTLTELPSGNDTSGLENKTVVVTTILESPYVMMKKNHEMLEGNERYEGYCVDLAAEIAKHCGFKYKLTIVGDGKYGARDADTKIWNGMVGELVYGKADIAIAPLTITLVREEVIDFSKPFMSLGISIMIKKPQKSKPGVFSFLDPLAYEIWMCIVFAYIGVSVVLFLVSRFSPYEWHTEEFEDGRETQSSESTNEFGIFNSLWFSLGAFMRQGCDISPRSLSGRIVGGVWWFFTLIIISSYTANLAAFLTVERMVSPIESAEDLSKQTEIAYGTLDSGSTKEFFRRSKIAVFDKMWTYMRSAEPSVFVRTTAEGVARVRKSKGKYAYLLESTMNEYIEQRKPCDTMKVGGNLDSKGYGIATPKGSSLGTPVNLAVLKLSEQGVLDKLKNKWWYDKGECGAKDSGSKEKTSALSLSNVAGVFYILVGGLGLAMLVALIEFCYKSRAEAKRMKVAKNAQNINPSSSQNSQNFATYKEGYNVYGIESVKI

With `N=c1ccc2c(-c3ccc(C(=O)NCc4ccn(-c5cc6c(cc5C(F)(F)F)[nH]c(=O)c(=O)n6CC(=O)O)c4)cc3C(=O)O)c3ccc(N)c(S(=O)(=O)O)c3oc-2c1S(=O)(=O)O` [PFQX1(AF488)], on GluA2flip(Q) (HEK293T cells expressing GluA2), the “cell-surface fluorescence / affinity to AMPARs (in words)” value is “high affinity”. The Kd was found to be 37.2 ± 9.8 nM at GluA2flip(Q) (HEK293T cells expressing GluA2flip(Q), cell-surface fluorescence, mean ± SEM, n = 3, read-out: dissociation constant (Kd) / Affinity to GluA2); 30.6 ± 7 nM at GluA3 (Y454A/R461G); 32.3 ± 4.7 nM at GluA2flip(R). In addition, the “reversibility of binding (medium exchange)” value on GluA2 is given as “fluorescence from the cell surface was lost after the medium exchange”. For the same molecule, on GluA2, the “time to saturation of cell-surface fluorescence after probe addition” value is listed as at most 20 s.
